Reference: US8309552B2, “Immunomodulating heterocyclic compounds” (Medigene AG, priority 2003, dated 2012)

Target: T1, CD80-CD28 interaction (Homo sapiens, UniProt P33681)
T1 sequence (P33681 35-242 limits assumed): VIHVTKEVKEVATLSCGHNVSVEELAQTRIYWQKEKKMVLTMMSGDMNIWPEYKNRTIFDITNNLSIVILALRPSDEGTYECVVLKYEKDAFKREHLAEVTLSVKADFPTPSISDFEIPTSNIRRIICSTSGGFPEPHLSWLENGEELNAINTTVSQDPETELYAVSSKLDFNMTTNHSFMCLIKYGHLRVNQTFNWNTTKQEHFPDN
Test: Homogenous Time Resolved Fluorescence (HTRF) assay, cell free
Format: binding
Details: cell free HTRF assay; concentration series 100 μM-1.7 nM; 4 hours at room temperature; read-out: Activity (EC50 in the HTRF assay)
Method: Homogenous Time Resolved Fluorescence Assay
The examples described above were tested in a cell free Homogenous Time Resolved Fluorescence (HTRF) assay to determine their activity as inhibitors of the CD80-CD28 interaction.
In the assay, europium and allophycocyanin (APC) are associated with CD28 and CD80 indirectly (through antibody linkers) to form a complex, which brings the europium and APC into close proximity to generate a signal. The complex comprises the following six proteins: fluorescent label 1, linker antibody 1, CD28 fusion protein, CD80 fusion protein, linker antibody 2, and fluorescent label 2. The table below describes these reagents in greater detail.
On formation of the complex, europium and APC are brought into proximity and a signal is generated.
Non-specific interaction was measured by substituting a mouse Fab fragment (C215) for the CD80 mouse Fab fragment fusion protein (1.9 μg/ml). The assay was carried out in black 384 well plates in a final volume of 30 μl. Assay buffer: 50 mM Tris-HCl, 150 mM NaCl pH7.8, containing 0.1% BSA (w/v) added just prior to use.
Compounds were added to the above reagents in a concentration series ranging between 100 μM-1.7 nM. The reaction was incubated for 4 hours at room temperature. Dual measurements were made using a Wallac Victor 1420 Multilabel Counter. First measurement: excitation 340 nm, emission 665 nm, delay 50 μs, window time 200 μs. second measurement: excitation 340 nm, emission 615 nm, delay 50 μs, window time 200 μs. Counts were automatically corrected for fluorescence crossover, quenching and background. The EC50 activities of compounds tested are recorded as: EC50:*=>10 μM,**=1-10 μM,***=<1 μM.

| EC50 | SMILES |
| --- | --- |
| < 1 µM | O=C(NCCCCN1CCCC1)Nc1ccc(-n2[nH]c3c(nnc4ccccc43)c2=O)cc1 [Example 228] |
| < 1 µM | O=C(NCCCN1CCCC1)c1ccc(-n2[nH]c3c(nnc4c(F)cccc43)c2=O)cc1 [Example 352] |
| < 1 µM | CN1CCCC1CCNC(=O)c1ccc(-n2[nH]c3c(nnc4c(F)cccc43)c2=O)cc1 (stereo not drawn) [Example 343] |
| < 1 µM | COC(CNC(=O)Nc1ccc(-n2[nH]c3c(nnc4ccccc43)c2=O)cc1)OC [Example 306] |
| < 1 µM | NC1CCC(NC(=O)c2ccc(-n3[nH]c4c(nnc5c(F)cccc54)c3=O)cc2)CC1 (stereo not drawn) [Example 410] |
| < 1 µM | CCCCN(CCCC)CCCNC(=O)c1ccc(-n2[nH]c3c(nnc4cccc(F)c43)c2=O)cc1 [Example 398] |
| > 10 µM | C[Si](C)(C)CNC(=O)c1ccc(-n2[nH]c3c(nnc4ccccc43)c2=O)cc1 [Example 320] |
| > 10 µM | O=C(Nc1ccc(-n2[nH]c3c(nnc4ccccc43)c2=O)cc1)Nc1nc2ccccc2s1 [Example 293] |
| > 10 µM | CC(NC(=O)Nc1ccc(-n2[nH]c3c(nnc4ccccc43)c2=O)cc1)C1CCCCC1 (stereo not drawn) [Example 261] |
| < 1 µM | CCNCCNC(=O)c1ccc(-n2[nH]c3c(nnc4c(F)cccc43)c2=O)cc1 [Example 357] |
| > 10 µM | O=C(NCc1ccc([N+](=O)[O-])cc1)Nc1ccc(-n2[nH]c3c(nnc4ccccc43)c2=O)cc1 [Example 296] |
| 1 to 10 µM | CCC(C)NC(=O)Nc1ccc(-n2[nH]c3c(nnc4ccccc43)c2=O)cc1 (stereo not drawn) [Example 309] |
| < 1 µM | O=C(NCC(F)F)c1ccc(-n2[nH]c3c(nnc4ccccc43)c2=O)cc1 [Example 311] |
| 1 to 10 µM | CCC(COCc1ccccc1)NC(=O)c1ccc(-n2[nH]c3c(nnc4ccccc43)c2=O)cc1 (stereo not drawn) [Example 276] |
| > 10 µM | O=C(Nc1ccc(-n2[nH]c3c(nnc4ccccc43)c2=O)cc1)NC1Cc2ccccc2C1 [Example 226] |
| < 1 µM | CCN(CC)CCCNC(=O)c1ccc(-n2[nH]c3c(nnc4cccc(F)c43)c2=O)cc1 [Example 392] |
| 1 to 10 µM | CC1CCCC(NC(=O)c2ccc(-n3[nH]c4c(nnc5ccccc54)c3=O)cc2)C1C (stereo not drawn) [Example 317] |
| 1 to 10 µM | O=C(NC1C2CC3CC(C2)CC1C3)c1ccc(-n2[nH]c3c(nnc4ccccc43)c2=O)cc1 (stereo not drawn) [Example 313] |
| < 1 µM | O=C(NCCN1CCNCC1)Nc1ccc(-n2[nH]c3c(nnc4ccccc43)c2=O)cc1 [Example 300] |
| < 1 µM | CC1CCCCN1CCCNC(=O)c1ccc(-n2[nH]c3c(nnc4c(F)cccc43)c2=O)cc1 (stereo not drawn) [Example 358] |
| > 10 µM | O=C(NC1CCc2ccccc21)c1ccc(-n2[nH]c3c(nnc4ccccc43)c2=O)cc1 (stereo not drawn) [Example 252] |
| 1 to 10 µM | O=C(NCC1CCCO1)c1ccc(-n2[nH]c3c(nnc4ccccc43)c2=O)cc1 (stereo not drawn) [Example 238] |
| < 1 µM | O=C(NCCCCN1CCSCC1)c1ccc(-n2[nH]c3c(nnc4c(F)cccc43)c2=O)cc1 [Example 419] |

Same assay, conditions: cell-free HTRF, compound concentration series 100 μM-1.7 nM, 4 hours at room temperature; read-out: Activity (EC50 in the HTRF assay)

| EC50 | SMILES |
| --- | --- |
| 1 to 10 µM | CC(NC(=O)c1ccc(-n2[nH]c3c(nnc4ccccc43)c2=O)cc1)C1CCCCC1 (stereo not drawn) [Example 120] |
| 1 to 10 µM | NS(=O)(=O)c1ccc(CCNC(=O)c2ccc(-n3[nH]c4c(nnc5ccccc54)c3=O)cc2)cc1 [Example 114] |
| > 10 µM | O=C(Nc1ccc(-n2[nH]c3c(nnc4ccccc43)c2=O)cc1)NC1CCCCC1 [Example 127] |
| > 10 µM | CC1C(NC(=O)Nc2ccc(-n3[nH]c4c(nnc5ccccc54)c3=O)cc2)CC2CC1C2(C)C (stereo not drawn) [Example 201] |
| < 1 µM | CC(O)CCNC(=O)Nc1ccc(-n2[nH]c3c(nnc4ccccc43)c2=O)cc1 (stereo not drawn) [Example 171] |
| > 10 µM | CC(C)(C)OC(=O)CNC(=O)Nc1ccc(-n2[nH]c3c(nnc4ccccc43)c2=O)cc1 [Example 205] |
| 1 to 10 µM | CCCNC(=O)c1ccc(-n2[nH]c3c(nnc4ccccc43)c2=O)cc1 [Example 84] |
| 1 to 10 µM | O=C(NCCN1CCCCC1)Nc1ccc(-n2[nH]c3c(nnc4ccccc43)c2=O)cc1 [Example 125] |
| 1 to 10 µM | CCOC(=O)CC(C)NC(=O)Nc1ccc(-n2[nH]c3c(nnc4ccccc43)c2=O)cc1 (stereo not drawn) [Example 175] |
| < 1 µM | CCCCN(CCCC)CCCNC(=O)c1ccc(-n2[nH]c3c(nnc4ccccc43)c2=O)cc1 [Example 58] |
| 1 to 10 µM | O=C(Nc1ccc(-n2[nH]c3c(nnc4ccccc43)c2=O)cc1)NC1CCC(O)CC1 (stereo not drawn) [Example 190] |
| 1 to 10 µM | O=C(Nc1ccc(N2CCOCC2)cc1)c1ccc(-n2[nH]c3c(nnc4ccccc43)c2=O)cc1 [Example 40] |
| < 1 µM | CC(C)C(C)NC(=O)c1ccc(-n2[nH]c3c(nnc4ccccc43)c2=O)cc1 (stereo not drawn) [Example 89] |
| > 10 µM | O=C(NC1CCCC1OCc1ccccc1)c1ccc(-n2[nH]c3c(nnc4ccccc43)c2=O)cc1 (stereo not drawn) [Example 44] |
| 1 to 10 µM | CCOC(=O)CCC(NC(=O)c1ccc(-n2[nH]c3c(nnc4ccccc43)c2=O)cc1)C(=O)OCC (stereo not drawn) [Example 74] |
| < 1 µM | COCC(C)NC(=O)Nc1ccc(-n2[nH]c3c(nnc4ccccc43)c2=O)cc1 (stereo not drawn) [Example 210] |
| < 1 µM | O=C(NCCCO)Nc1ccc(-n2[nH]c3c(nnc4ccccc43)c2=O)cc1 [Example 150] |
| 1 to 10 µM | O=C(Nc1ccc(-n2[nH]c3c(nnc4ccccc43)c2=O)cc1)NC1CCN(Cc2ccccc2)CC1 [Example 123] |
| > 10 µM | CC(NC(=O)Nc1ccc(-n2[nH]c3c(nnc4ccccc43)c2=O)cc1)C1CCCCC1 (stereo not drawn) [Example 194] |
| > 10 µM | CC(C)CCC(C)NC(=O)Nc1ccc(-n2[nH]c3c(nnc4ccccc43)c2=O)cc1 (stereo not drawn) [Example 218] |
| < 1 µM | CCSCCNC(=O)c1ccc(-n2[nH]c3c(nnc4ccccc43)c2=O)cc1 [Example 77] |
| < 1 µM | CC(C)NCCNC(=O)c1ccc(-n2[nH]c3c(nnc4ccccc43)c2=O)cc1 [Example 108] |
| 1 to 10 µM | O=C(NC1CCCCC1)c1ccc(-n2[nH]c3c(nnc4ccccc43)c2=O)cc1 [Example 57] |
| 1 to 10 µM | O=C(Nc1ccc(-n2[nH]c3c(nnc4ccccc43)c2=O)cc1)NC1CCOC1=O (stereo not drawn) [Example 195] |
| < 1 µM | O=C(NCCCNC1CCCCC1)Nc1ccc(-n2[nH]c3c(nnc4ccccc43)c2=O)cc1 [Example 134] |
| > 10 µM | O=C(Nc1ccc(-n2[nH]c3c(nnc4ccccc43)c2=O)cc1)NC1CCCC1OCc1ccccc1 (stereo not drawn) [Example 211] |
| 1 to 10 µM | O=C(NC1CC1)c1ccc(-n2[nH]c3c(nnc4ccccc43)c2=O)cc1 [Example 78] |
| 1 to 10 µM | CC(C)(C)CCNC(=O)c1ccc(-n2[nH]c3c(nnc4ccccc43)c2=O)cc1 [Example 85] |
| 1 to 10 µM | CSCCCNC(=O)Nc1ccc(-n2[nH]c3c(nnc4ccccc43)c2=O)cc1 [Example 161] |
| 1 to 10 µM | COC(=O)CNC(=O)c1ccc(-n2[nH]c3c(nnc4ccccc43)c2=O)cc1 [Example 115] |

Same assay, conditions: cell-free HTRF, concentration series 100 μM-1.7 nM, 4 hours at room temperature; read-out: Activity (EC50 in the HTRF assay)

| EC50 | SMILES |
| --- | --- |
| < 1 µM | O=C(c1ccc(-n2[nH]c3c(nnc4c(F)cccc43)c2=O)cc1)N1CCCCCC1 [Example 463] |
| < 1 µM | NC1CCCC(NC(=O)c2ccc(-n3[nH]c4c(nnc5c(F)cccc54)c3=O)cc2)C1 (stereo not drawn) [Example 499] |
| < 1 µM | O=C(c1ccc(-n2[nH]c3c(nnc4c(F)cccc43)c2=O)cc1)N1CCCNCC1 [Example 490] |
| < 1 µM | CC(CO)(CO)NC(=O)c1ccc(-n2[nH]c3c(nnc4c(F)cccc43)c2=O)cc1 [Example 517] |
| < 1 µM | CC1CCCCN1CCCCNC(=O)c1ccc(-n2[nH]c3c(nnc4c(F)cccc43)c2=O)cc1 (stereo not drawn) [Example 454] |
| < 1 µM | NCCCNC(=O)c1ccc(-n2[nH]c3c(nnc4c(F)cccc43)c2=O)cc1 [Example 445] |
| 1 to 10 µM | O=C(NCC1CCCCCCC1O)c1ccc(-n2[nH]c3c(nnc4c(F)cccc43)c2=O)cc1 (stereo not drawn) [Example 506] |
| 1 to 10 µM | O=C(NC(CO)Cc1c[nH]c2ccccc12)c1ccc(-n2[nH]c3c(nnc4c(F)cccc43)c2=O)cc1 (stereo not drawn) [Example 515] |
| < 1 µM | O=C(NCC(F)(F)C(F)F)c1ccc(-n2[nH]c3c(nnc4c(F)cccc43)c2=O)cc1 [Example 467] |
| < 1 µM | CC1CN(C(=O)c2ccc(-n3[nH]c4c(nnc5c(F)cccc54)c3=O)cc2)CC(C)O1 (stereo not drawn) [Example 461] |
| < 1 µM | CCNC(=O)c1ccc(-n2[nH]c3c(nnc4c(F)cccc43)c2=O)cc1 [Example 450] |
| < 1 µM | CCC(C)(C)NCCCCNC(=O)c1ccc(-n2[nH]c3c(nnc4c(F)cccc43)c2=O)cc1 [Example 480] |
| < 1 µM | CC(C)CN(CCCCNC(=O)c1ccc(-n2[nH]c3c(nnc4c(F)cccc43)c2=O)cc1)CC(C)C [Example 476] |
